Measured values from patent US20170209443A1, “ANTI-INFLAMMATORY EFFECT OF ORALLY ACTIVE FYN KINASE INHIBITOR SARA-CATINIB (AZD 0530) AGAINST PARKINSON'S DISEASE AND OTHER RELATED NEURODEGENARATIVE DISEASES” (Iowa State University Research Foundation, Inc., priority 2016, published 2017).
“Also recorded” adds a separate entry of the source. Residues, ends and D or L forms follow the SMILES beside them. *: point of attachment. Cbz = O=C(OCc1ccccc1)*; CH2F = FC*

Assays:
[1] = test system: immortalized WT microglial cells; assay: aggregated αSyn-induced IL-1β secretion from unprimed immortalized microglial cells; type: cell-based; conditions: pre-treatment before aggregated αSyn, FIG. 19B
Source text: The current model of the NLRP3 inflammasome postulates a two-step mechanism. A TLR or TNFR1 agonist, acting as the initial signal, induces the expression of pro-[…] and NLRP3 proteins. Subsequently, a second signal causes lysosomal rupture, mitochondrial ROS generation and/or K^+ efflux that acts as a danger signal resulting in the assembly and activation of the inflammasome complex and the processing and secretion of IL-1β into the cell supernatant. Since we observed that αSyn can signal the inflammasome and can also amplify LPS-mediated activation of NLRP3 and pro-IL-1β at the mRNA and protein level, we wondered if it could activate the NLRP3 inflammasome independent of an LPS-mediated priming step. Unprimed and immortalized WT and Capsase-1^−/− microglial cells were treated with aggregated αSyn for 4 h. As assessed via immunoblot, aggregated αSyn induced pro-IL-1β and NLRP3 to equivalent levels in both cell types (FIG. 19A). It also brought about the secretion of IL-1β in WT, and to a strikingly lower extent in the Caspase-1 deficient microglial cells. […] We next utilized primary BMDMs from WT, NLRP3^−/−, Caspase-1^−/− and Caspase-11^−/− mice to test the ability of αSyn to activate the NLRP3 inflammasome in them. As expected, we saw no genotypic difference in the ability of macrophages to induce pro-IL-1β and import αSyn (FIG. 19C). […]

microglial cell line [2] = assay: cell viability assay in microglial cell line; type: cell-based; conditions: FIG. 26A
Procedure: (§1) In this study microglial cell line were pretreated with 1-30 μM Saracatinib, a Fyn kinase inhibitor followed by aggregated α-synuclein (1 μM) for 24 hours in a 96 well plate.

microglial cell line [3] = assay: Griess assay, aggregated α-synuclein induced nitrite production; type: cell-based; conditions: FIG. 26B
Procedure: Nitric oxide production by primary microglia was measured indirectly by quantification of nitrite in the supernatant using the Griess reagent (Sigma Aldrich). Microglia were plated in poly-D-lysine-coated 96-well plates at 1×10^5 cells/well. Cells were treated with 100 ng/mL of LPS for 24 h and after 100 μL of supernatant was collected from each well, an equal volume of the Griess reagent was added. The samples were incubated on a plate shaker at room temperature for 15 min until a stable color was obtained. The absorbance at 540 nm was measured using a Synergy 2 multi-mode microplate reader (BioTek Instruments) and the nitrite concentration was determined from a sodium nitrite standard curve.
as §1

microglial cell line [4] = assay: Luminex cytokine assay, aggregated α-synuclein induced pro-inflammatory cytokines; type: cell-based; conditions: 1-30 μM pretreatment, aggregated α-synuclein (1 μM) 24 hours; FIG. 26C
Procedure: Primary microglia obtained from wild-type, PKCδ^−/− and Fyn^−/− mice were seeded in poly-D-lysine-coated 96-well plates at 1×10^5 cells/well. The cells were treated for 24 h with 100-200 ng/mL LPS or 10 ng/mL TNFα. After treatment, 50 μL of supernatant from each well was collected and frozen at −80° C. The levels of cytokines and chemokines in the supernatants were determined using the Luminex bead-based immunoassay platform (Vignali 2000) and pre-validated multiplex kits (Milliplex mouse cytokine panel Millipore) according to the manufacturer's instructions.
as §1

MPTP-treated mice = assay: microglia activation (IBA-1) in substantia nigra, acute MPTP mouse model; type: in vivo, C57 black mice; conditions: FIG. 27; for expression of IBA-1 in SN tissue (Western blot): oral 5 mg/kg once on days 1 and 2, MPTP 18 mg/kg x 4 i.p., 24 hrs after last MPTP
Procedure: Thus, we evaluated whether the Sarcanatib attenuates microglial activation in the substantia nigra. C57 black mice were orally administered saracatinib (5 mg/kg, once) on days 1 and 2. On day 2, after sarcanatib administration, mice were subject to acute MPTP regimen. Mice were administered 18 mg/kg MPTP (4 i.p. injections at 2 hour intervals) and control animals received saline. Mice were sacrificed 24 hrs post last MPTP injection. Brain harvested and nigral tissue lysates were subject to Western blot analysis.

[5] = test system: LPS-primed primary murine microglia; assay: αSyn-induced IL-1β and TNFα production in LPS-primed primary microglia; type: cell-based; conditions: pre-treatment post priming, before αSyn; FIG. 14A
Procedure: Misfolded proteins can activate the NLRP3 inflammasomes in microglia (Hafner-Bratkovic et al., 2012; Halle et al., 2008). After obtaining and purifying human αSyn (FIG. 15), we determined that endotoxin contamination was minimal, and that an equivalent concentration of LPS could not activate pro-inflammatory signaling in microglia (data not shown). Aggregation of αSyn was performed as previously described (Zhang et al., 2005). LPS-primed primary murine microglia were treated with α-synuclein for 24 h, with or without the pre-treatment of the pan-Caspase inhibitor ZVAD-FMK or the Caspase-1 specific inhibitor ZYVAD-FMK. […] Next, we treated LPS-primed bone marrow-derived macrophages (BMDMs) from WT, NLRP3^−/−, ASC^−/−, Caspase-1^−/− and Caspase-11^−/− mice with aggregated human α-synuclein for 24 h (FIG. 14B). […] By immunoblotting the levels of pro-IL-1β produced upon LPS treatment (FIG. 14C, 14D), we confirmed that none of these proteins played a role in the priming of the NLRP3 inflammasome. Next, we assessed the inflammasome activating ability of aggregated human αSyn in primary murine microglia by staining for ASC in LPS and LPS+αSyn treated microglia. […] We also utilized the ASC-CFP reporter cell line, which overexpresses ASC tagged with cyan fluorescent protein (CFP). NLRP3 inflammasome activation causes ASC to coalesce into a single speck within each cell. We counted the number of ASC-positive specks to measure inflammasome activation. ASC-CFP cells were primed with LPS and treated with aggregated αSyn for 2 h. Endogenous CFP fluorescence was assessed. In the αSyn treated group, specks of ASC were observed, indicating inflammasome activation (FIG. 14G). […] In summary, aggregated αSyn acts as an efficient danger signal to activate the NLRP3 inflammasome. Data from the A53T model and from PD patient lysates provide in vivo relevance as well. We also observed increased Fyn expression within the microglia in PD tissues, when compared to age-matched control tissues (FIG. 16).

Compound	αSyn-induced secretion of IL-1β [1]	cytotoxic cell death (microglial cell line [2]; 1-30 μM pretreatment, then aggregated α-synuclein (1 μM) for 24 hours)	cell death (microglial cell line [2]; low dose)	nitrite production induced by aggregated α-synuclein (microglial cell line [3]; 10 μM dose)	aggregated α-synuclein induced nitrite production (microglial cell line [3]; 1-30 μM pretreatment, aggregated α-synuclein (1 μM) 24 hours)	IL-1β production induced by aggregated α-synuclein (microglial cell line [4])	IL-12 production induced by aggregated α-synuclein (microglial cell line [4])	TNF-α production induced by aggregated α-synuclein (microglial cell line [4])	activation of microglia in the substantia nigra (MPTP-treated mice; MPTP-treated mice)	expression of IBA-1 in SN tissue (Western blot) (MPTP-treated mice)	expression of IBA-1 in SN tissue (Western blot) (MPTP-treated mice; listed as saracatinib)	secretion/production of TNFα [5]	αSyn-induced IL-1β cleavage and secretion [5]
CN1CCN(CCOc2cc(OC3CCOCC3)c3c(Nc4c(Cl)ccc5c4OCO5)ncnc3c2)CC1 [Saracatinib]	inhibited by pre-treatment with the Fyn inhibitor Saracatinib in a dose-dependent manner; also recorded: inhibited with pretreatment of the Fyn inhibitor Saracatinib in a dose dependent manner	did not induce cytotoxic cell death	not associated with cell death	attenuates the nitrite production	significantly blocked aggregated α-synuclein induced nitrite production in a dose-dependent manner	significantly attenuated; also recorded: attenuates the secretion	significantly attenuated; also recorded: attenuates the secretion	significantly attenuated; also recorded: attenuates the secretion	blocked activation of microglia	not in Saracatinib and MPTP-treated animals	attenuated the expression of IBA-1	–	–
COC(=O)C[C@H](NC(=O)[C@H](C)NC(=O)[C@@H](NC(=O)OCc1ccccc1)C(C)C)C(=O)CF [ZVAD-FMK] (Cbz-Val-Ala-Asp(OMe)-CH2F)	–	–	–	–	–	–	–	–	–	–	–	only marginally reduced	reduced in the group pre-treated with the Caspase inhibitors
COC(=O)C[C@H](NC(=O)[C@H](C)NC(=O)[C@@H](NC(=O)[C@H](Cc1ccc(O)cc1)NC(=O)OCc1ccccc1)C(C)C)C(=O)CF [ZYVAD-FMK]	–	–	–	–	–	–	–	–	–	–	–	only marginally reduced	reduced in the group pre-treated with the Caspase inhibitors
